We go through six compounds from ChEMBL document CHEMBL1240427, “Chemistry around imidazopyrazine and ibuprofen: discovery of novel fatty acid amide hydrolase (FAAH) inhibitors” (Eur J Med Chem, 2010).

The subject of test [1] is Caco-2. The test can be described thus: Effect in human Caco-2 cells assessed as IL-1-beta-induced IL8 production relative to control at 50 uM after 24 hrs by ELISA. Particulars: Caco-2, 24 h.
Test [2] relates to Caco-2. Description: Effect in human Caco-2 cells assessed as IL-1-beta-induced IL8 production relative to control at 5 uM after 24 hrs by ELISA. The following applies: Caco-2, 24 h.

With `Oc1ccc(-c2cn3c(O)c(-c4ccccc4)nc3cn2)cc1`, in test [1], the level, % of control at 50 µM stood at 65%. As to `CC(C)Cc1ccc(C(C)C(=O)CCl)cc1` (configuration not stated), the level, % of control at 50 µM in test [1] was found to be 70%. Take `N=c1c(-c2ccccc2)nc2c[nH]c(-c3ccc(O)cc3)cn1-2`: the level, % of control at 50 µM in test [1] was determined as 56%. In addition, in test [2], the level, % of control at 5 µM worked out at 75%.

Turning to `CON(C)C(=O)C(C)c1ccc(CC(C)C)cc1` (configuration not stated), the level, % of control at 50 µM in test [1] came to 55%. Still for that read-out and setting: to `CC(C)Cc1ccc(C(C)C(=O)n2nnc3ccccc32)cc1` (configuration not stated) belongs 76%; to `CC(C)Cc1ccc(C(C)C(=O)/C=N/O)cc1` (configuration not stated), 290%.
